# Key:
# Escherichia coli (Ec) = experiment: Antibacterial MIC assay (CO-ADD); assay type: cell-based; details: 18 h, 37 °C, inhibition ≥ 80%
# Procedure: (§1) The antimicrobial assays were performed according to the protocols of the Community for Open Antimicrobial Drug Discovery (CO-ADD). […] All the sample preparation was done using liquid-handling robots.
# (§2) The antibacterial activity of all synthesized complexes was evaluated in five different pathogenic bacteria, including methicillin-resistant Staphylococcus aureus (Sa), Escherichia coli (Ec), Klebsiella pneumonia (Kp), Psedomonas aeruginosa (Pa), and Acinetobacter baumannii (Ab). All bacteria were cultured in cation-adjusted Mueller Hinton Broth (CAMHB) at 37 °C overnight. A sample of each culture was then diluted 40-fold in fresh broth and incubated at 37 °C for 1.5–3 h. The resultant mid-log phase cultures were diluted (CFU/mL measured by OD600), then added to each well of the complexes containing plates, giving a cell density of 5 × 10^5 CFU/mL and a total volume of 50 μL. All the plates were covered and incubated at 37 °C for 18 h without shaking. The inhibition of bacterial growth was determined by measuring the absorbance at 600 nm (OD600) using a Tecan M1000 Pro monochromator plate reader (Männedorf, Switzerland). The percentage of growth inhibition was calculated for each well, using the negative control (media only) and positive control (bacteria without inhibitors) on the same plate as references. […]
# [1] = system: Acinetobacter baumannii (Ab); experiment: Antibacterial MIC assay (CO-ADD); assay type: cell-based; details: 18 h, 37 °C, inhibition ≥ 80%
# Procedure: as §1, §2
# [2] = system: Psedomonas aeruginosa (Pa); experiment: Antibacterial MIC assay (CO-ADD); assay type: cell-based; details: 18 h, 37 °C, inhibition ≥ 80%
# Procedure: as §1, §2
# Caco-2/TC7 normal cells = experiment: MTT cell viability, normal (differentiated) Caco-2/TC7 cells (15 days after seeding); assay type: cell-based, human; details: Caco-2/TC7, 15 days after seeding, 72 h incubation
# Procedure: (§3) This study was conducted in the human enterocyte-like cell line Caco-2/TC7 [44]. This cell line undergoes a process of spontaneous differentiation in culture that leads to the formation of a monolayer of cells, expressing the morphological and functional characteristics of the mature enterocytes. This differentiation process is growth-dependent, where the cells undergo differentiation from “undifferentiated proliferative crypt-type cells” in the exponential phase of growth, to “differentiated enterocyte-type cells” in the stationary phase. The cell culture of Caco-2/TC7 cells (passages 30–50) was performed according to a previously reported method.
# (§4) Cell survival was measured using the MTT test. The assay depends on the cellular reduction of 3-(4,5-dimethylthiazol-2-yl)-2,5-diphenyltetrazolium bromide (MTT, Sigma-Aldrich, Madrid, Spain) by the mitochondrial dehydrogenase of viable cells to a blue formazan product that can be measured spectrophotometrically, as previously described.
# (§5) The in vitro cytotoxic effect was evaluated on human colon cancer cell line Caco-2/TC7. This particular cell line presents a huge advantage for toxicity studies because of its spontaneous enterocytic-like differentiation when confluence is reached. Therefore, Caco-2 cells become polarized cells expressing apical and basolateral surfaces with well-established tight junctions. Thus, cells present noncarcinogenic behavior in the confluence and the cytotoxic effect of our complexes can be performed on differentiated cells to evaluate the selectivity toward tumor cells. For the antiproliferative studies, MTT assay was performed after 72 h of exposure to different concentrations of the complexes at two different stages of confluence, five days to evaluate the effect on tumor cells (Figure S7) and 15 days for normal cells (Figure S8).
# [3] = system: methicillin-resistant Staphylococcus aureus (Sa); assay type: cell-based; details: 18 h, 37 °C, inhibition ≥ 80%
# Procedure: The antimicrobial assays were performed according to the protocols of the Community for Open Antimicrobial Drug Discovery (CO-ADD). C1–6 were prepared in DMSO and water to a final testing concentration of 32 μg/mL and serially diluted 1:2-fold 8 times. Each sample concentration was prepared in 384-well plates, non-binding surface plate (NBS; Corning 3640) for each bacterial/fungal strain, all in duplicate (n = 2), and keeping the final DMSO concentration to a maximum of 0.5%. All the sample preparation was done using liquid-handling robots.
# as §2
# Candida albicans (Ca) = experiment: Antifungal MIC assay (CO-ADD); assay type: cell-based; details: 36 h, 35 °C, inhibition ≥ 80%
# Procedure: as §1
# The antifungal activity of all synthesized complexes was evaluated in two different fungi, Candida albicans (Ca) and Cryptococcus neoformans (Cn). Fungi strains were cultured for 3 days on yeast extract–peptone–dextrose (YPD) agar at 30 °C. A yeast suspension of 1 × 10^6 to 5 × 10^6 CFU/mL (as determined by OD530) was prepared from five colonies. The suspension was subsequently diluted and added to each well of the complex-containing plates, giving a final cell density of fungus suspension of 2.5 × 10^3 CFU/mL and a total volume of 50 μL. All plates were covered and incubated at 35 °C for 36 h without shaking. […] The absorbance was measured using a Biotek Multiflo Synergy HTX plate reader (Winooski, VT, USA). In both cases, the percentage of growth inhibition was calculated for each well, using the negative control (media only) and positive control (fungi without inhibitors) on the same plate. […] Due to a higher variance in growth and inhibition, a lower threshold was applied to the data for C. neoformans.
# [4] = n-octanol/water partition coefficient, shake-flask method; assay type: physicochemical; details: n-octanol / buffered saline pH 7.4, shake-flask
# Procedure: The n-octanol/water coefficient of the complexes was determined using the shake-flask method previously described. Buffered-saline distilled water (100 mL, phosphate buffer PO4^3− = 10 mM, (NaCl = 0.15 M, pH 7.4) and n-octanol (100 mL) were shaken together for 72 h to allow the saturation of both phases. Approximately 1 mg of the complexes was dissolved in 5 mL of the aqueous phase, and 5 mL of the organic phase was added, mixing for 10 min. The resulting emulsion was centrifuged to separate the phases. The concentration of the compounds in each phase was determined using UV−Vis absorbance spectroscopy. Log P7.4 was calculated as log (Absorganic/Absaqueous).
# Biodistribution studies should be conducted to evaluate whether our complexes could reach their pharmacological target. The potential biodistribution of our complexes was evaluated by the measure of the partition coefficient. This parameter indicates how balanced the lipo- and hydrophilicity of the compounds are. Good equilibrium between these two properties is crucial for proper distribution inside the organism. The bloodstream is aqueous in nature, so hydrophilicity is needed for drug delivery, but too-high hydrophilicity can hinder the penetration of biological membranes. Of course, high lipophilicity behavior can hinder biomedical applications related to a good distribution profile. The chosen method to measure the partition coefficient (Log Pow) was the shake-flask technique, with ideal values in the range of −1 ≤ Log P ow ≤ 3. However, for a greater oral and intestinal absorption, a more restricted range has values around 1.35–1.80 [57]. Table 2 collects all of the obtained Log Pow values, and it can be seen that, although only complex [Au(ppy)(dedtc)]PF6 (C4) satisfied this restricted range, all of them presented acceptable values of Log Pow.
# Caco-2/TC7 tumor cells = experiment: MTT cell viability, tumor Caco-2/TC7 cells (5 days after seeding); assay type: cell-based, human; details: for IC50: Caco-2/TC7, 5 days after seeding, 72 h incubation, MTT; for Tumor Cells Selectivity over Normal Cells: ratio of IC50 normal / tumor Caco-2/TC7 cells
# Procedure: as §3, §4, §5
Molecule,MIC Ec (Escherichia coli (Ec)),MIC Ab [1],MIC Pa [2],IC50 (Caco-2/TC7 normal cells),MIC Sa [3],MIC Ca (Candida albicans (Ca)),Log Pow [4],IC50 (Caco-2/TC7 tumor cells),Tumor Cells Selectivity over Normal Cells (Caco-2/TC7 tumor cells)
"Cc1ccc(-c2ccccn2)[c]([Au+][S]C(=S)N(C)C)c1.F[P-](F)(F)(F)(F)F [Complex C1, [Au(tpy)(dmdtc)] PF6]",32 µg/mL,>32 µg/mL,>32 µg/mL,23.03 ± 0.06 µM,≤0.25 µg/mL,>32 µg/mL,0.61,5.11 ± 0.12 µM,4.5-fold
"CN(C)C(=S)[S][Au+][c]1ccccc1-c1ccccn1.F[P-](F)(F)(F)(F)F [Complex C2, [Au(ppy)(dmdtc)]PF6]",32 µg/mL,32 µg/mL,>32 µg/mL,15.69 ± 0.06 µM,≤0.25 µg/mL,32 µg/mL,1.11,1.79 ± 0.12 µM,8.8-fold
"CCN(CC)C(=S)[S][Au+][c]1cc(C)ccc1-c1ccccn1.F[P-](F)(F)(F)(F)F [Complex C3, [Au(tpy)(dedtc)]PF6]",32 µg/mL,>32 µg/mL,>32 µg/mL,12.95 ± 0.11 µM,≤0.25 µg/mL,>32 µg/mL,1.17,1.85 ± 0.36 µM,7.0-fold
"Cc1ccc2[c](c1)[Au-]1([S]C(N(Cc3ccccc3)Cc3ccccc3)=[S+]1)[n+]1ccccc1-2.F[P-](F)(F)(F)(F)F (centres unmarked) [Complex C5, [Au(tpy)(dbdtc)]PF6]",>32 µg/mL,>32 µg/mL,>32 µg/mL,> 100 µM,32 µg/mL,32 µg/mL,0.89,2.07 ± 0.11 µM,
"F[P-](F)(F)(F)(F)F.S=C([S][Au+][c]1ccccc1-c1ccccn1)N(Cc1ccccc1)Cc1ccccc1 [Complex C6, [Au(ppy)(dbdtc)]PF6]",>32 µg/mL,32 µg/mL,>32 µg/mL,24.7 ± 0.36 µM,4 µg/mL,4 µg/mL,1.00,4.02 ± 0.3 µM,6.2-fold
[Au(ppy)(dedtc)]PF6 [Complex C4],32 µg/mL,>32 µg/mL,>32 µg/mL,16.79 ± 0.13 µM,≤0.25 µg/mL,32 µg/mL,1.57,2.47 ± 0.25 µM,6.8-fold
